What was measured:
D4 human receptors = target: T1, D4 human receptors (Homo sapiens, UniProt P21917); experiment: D4 radioligand receptor binding assay ([3H] YM-09151-2); settings: compound 10^−7 M, singlicate; membranes from CHO cells; [3H] YM-09151-2 0.15-0.25 nM
T1 construct: expressed in transfected cells; host or cells: CHO cells
T1 sequence (P21917 1-419): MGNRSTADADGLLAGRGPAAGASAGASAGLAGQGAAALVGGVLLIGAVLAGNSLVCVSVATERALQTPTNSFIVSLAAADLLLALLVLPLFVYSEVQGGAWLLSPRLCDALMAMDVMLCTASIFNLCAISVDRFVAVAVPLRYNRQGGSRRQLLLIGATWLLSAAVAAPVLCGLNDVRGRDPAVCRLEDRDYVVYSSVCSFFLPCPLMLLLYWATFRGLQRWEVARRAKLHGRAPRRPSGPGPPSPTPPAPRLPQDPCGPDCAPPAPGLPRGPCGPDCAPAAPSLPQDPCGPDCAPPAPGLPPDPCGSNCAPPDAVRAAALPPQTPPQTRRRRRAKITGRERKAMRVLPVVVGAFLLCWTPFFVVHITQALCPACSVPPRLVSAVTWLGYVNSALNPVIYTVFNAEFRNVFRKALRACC
Method: D4 Radioligand Receptor Binding Assay
Membranes from CHO cells, expressing D4 human receptors were suspended in incubation buffer.
Binding assays were performed in MultiProbe 204 pipetting system (Packard), according to a predetermined mapping, consistent with the software Screen. The compounds were tested in singlicate at one concentration (10^−7 M) in a total volume of 1000 μl (980 μl of diluted membranes, 10 μl DMSO or unlabelled ligand, and 10 μl of [^3H] YM-09151-2 (0.15-0.25 nM). After incubation for 120 minutes at 27° C., the reaction was stopped by rapid filtration through Tomtec Cell Harvester (48 wells) using Filtermat B (presoaked in 0.1% PEI) filters. Filters were washed with ice-cold 50 mM Tris-HCl (pH 7.4) buffer (9×700 μl), dried, covered with MeltiLex B/HS (Wallac) scintillator sheets and heated in oven at 80° C.-90° C. for about 10 minutes, transferred into plastic sample bags (Wallac), sealed and put into 1024 Beta Plate scintillation counter (Wallac). Non-specific binding was determined in the presence of clozapine dissolved in DMSO to a final concentration of 10^−5 M.
(§1) The specific radioligand binding to the receptor was defined by the difference between total binding and non-specific binding, determined in the presence of an excess of unlabelled ligand. Results were expressed as percentage of control specific binding obtained in the presence of the compounds.

[1] = target: T2, 5-HT1A receptor (CHO/5-HT1A cells) (Homo sapiens, UniProt P08908); experiment: 5-HT1A functional assay (cAMP); format: cell-based; settings: 10 μM compound, % inhibition of the cAMP accumulation induced by 10 μM FSK, read-out: 5-HT1A cAMP % Inhibition (agonist activity)
T2 construct: expressed in transfected cells; host or cells: CHO/5-HT1A cells
T2 sequence (P08908 1-422): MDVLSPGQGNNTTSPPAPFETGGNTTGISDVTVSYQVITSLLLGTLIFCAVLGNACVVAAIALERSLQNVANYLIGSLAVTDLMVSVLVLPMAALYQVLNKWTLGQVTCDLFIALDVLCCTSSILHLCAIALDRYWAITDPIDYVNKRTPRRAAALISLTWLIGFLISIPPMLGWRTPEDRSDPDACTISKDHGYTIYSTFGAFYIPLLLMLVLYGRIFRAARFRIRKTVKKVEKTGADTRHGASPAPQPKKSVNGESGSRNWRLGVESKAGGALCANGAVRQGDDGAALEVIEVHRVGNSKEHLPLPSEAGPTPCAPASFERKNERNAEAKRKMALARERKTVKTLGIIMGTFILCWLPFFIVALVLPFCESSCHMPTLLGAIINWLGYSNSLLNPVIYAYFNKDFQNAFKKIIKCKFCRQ
Method: 5-HT1A Functional Assay (cAMP)
CHO/5-HT1A cells were random seeded at a density of about 200,000/well in 24 well plates the day prior to the experiment. On the day of the experiment, cells were pretreated for 15 minutes at 37° C. with 500 μM isobutylmethylxantine (IBMX) dissolved in culture medium without serum. Wells were then divided in different groups in duplicate as follows: control, 10 μM FSK, 10 μM FSK+1 μM 5-HT as positive standard and 10 μM FSK+10 μM of the different compound under evaluation. Sample solutions were added and incubated for additional 15 minutes at 37° C. After incubation, medium was aspirated and the reaction stopped by adding 200 μl of lysis buffer. Plates were shaken for 5 minutes, then the lysate was removed and samples were stored at 4° C. until the day of the assay. For the cAMP evaluation, samples were properly diluted and the cAMP content was measured by an enzyme immunoassay system.
Results are expressed as % inhibition of the cAMP accumulation induced by 10 μM FSK.

5-HT1A human receptors = target: T3, 5-HT1A human receptors (Homo sapiens, UniProt P08908); experiment: 5-HT1A radioligand receptor binding assay ([3H]-8-OH-DPAT)
T3 construct: expressed in transfected cells; host or cells: CHO cells
T3 sequence (P08908 1-422): T2 sequence (P08908 1-422)
Method: 5-HT1A, Radioligand Receptor Binding Assay
Membranes from CHO cells, expressing 5-HT1A human receptors were suspended in incubation buffer.
Binding assays were performed in MultiProbe 204 pipetting system (Packard), according to a predetermined mapping, consistent with the software Screen. The compounds were tested in singlicate at one concentration (10^−7 M) in a total volume of 1000 μl. 980 μl of diluted membranes, 10 μl DMSO or unlabelled ligand, and 10 μl of [^3H]-8-OH-DPAT (0.6-0.7 nM) were incubated for 60 minutes at 27° C. The reaction was stopped by rapid filtration through Tomtec Cell Harvester (48 wells) using Filtermat B (presoaked in 0.1% PEI) filters. Filters were washed with ice-cold 50 mM Tris-HCl (pH 7.4) buffer (9×700 μl), dried, covered with MeltiLex B/HS scintillator sheets (Wallac) and heated at 80° C. to 90° C. for about 10 minutes, transferred into plastic sample bags (Wallac), sealed and put into 1024 Beta Plate scintillation counter (Wallac). Non-specific binding was determined in the presence of 5-HT (10^−5 M).
as §1, with “compounds. The affinity values (IC50) for the compounds were obtained by a nonlinear least squares regression analysis on the basis of a one binding site model.” for “compounds.”

## CCCn1c(=O)n(C/C=C/CN2CC=C(c3ccccc3)CC2)c2ccccc21 [Compound 112]
D4 human receptors
  inhibition at 0.1 µM: 43%
[1]
  inhibition at 10 µM: 9%
5-HT1A human receptors
  IC50: 13 nM
5-HT1A human receptors; compound 10^−7 M, singlicate, membranes from CHO cells, [3H]-8-OH-DPAT 0.6-0.7 nM
  inhibition at 0.1 µM: 87%

Source: US6586435B2, “Benzimidazolone derivatives displaying affinity at the serotonin and dopamine receptors” (Boehringer Ingelheim Pharma KG, priority 2000, dated 2003)
